{
  "source": "the supplement of paper PMC4862054",
  "key": {"HCC1937": {"tested_on": "HCC1937", "conditions": "72 h", "procedure,_shortened": "(§1)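 Seeding of breast cancer cell lines (20 µl suspension) was done into 384-well plates pre-loaded with compound at 5 concentrations, 10-fold apart, covering a compound-specific 10,000-fold range. The plates were incubated for 72 h, read for CellTox Green fluorescence (485/520 nm), and then read for CellTiter-Glo luminescence after 10 min at room temperature. Every plate was normalised to 0.1 % DMSO and a positive kill control. Curve fitting gave the EC50, censored at the top concentration.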"}, "HCC1599": {"tested_on": "HCC1599", "conditions": "72 h", "procedure,_shortened": "as §1"}},
  "data": [
    {"smiles": "O=[N+]([O-])c1ccc2c(c1)S(=O)(=O)C=C2", "note": "[Stattic]", "values": [
      {"measurement": "EC50, CellTox Green", "setting": "HCC1937", "value": 0.349, "unit": "µM"}
    ]},
    {"smiles": "CCN(CC)CCCC(C)Nc1ccnc2cc(Cl)ccc12", "note": "(configuration not stated) [Chloroquine]", "values": [
      {"measurement": "EC50, CellTox Green", "setting": "HCC1599", "value": 17.9, "unit": "µM"},
      {"measurement": "EC50, CellTox Green", "setting": "HCC1937", "value": 23.9, "unit": "µM"}
    ]},
    {"smiles": "C=CCn1c(=O)c2cnc(Nc3ccc(N4CCN(C)CC4)cc3)nc2n1-c1cccc(C(C)(C)O)n1", "note": "[MK1775]", "values": [
      {"measurement": "EC50, CellTox Green", "setting": "HCC1599", "value": 0.0541, "unit": "µM"}
    ]},
    {"smiles": "COc1cc(Nc2c(C#N)cnc3cc(OCCCN4CCN(C)CC4)c(OC)cc23)c(Cl)cc1Cl", "note": "[Bosutinib]", "values": [
      {"measurement": "EC50, CellTox Green", "setting": "HCC1599", "value": "> 10", "unit": "µM"},
      {"measurement": "EC50, CellTox Green", "setting": "HCC1937", "value": 5.4, "unit": "µM"}
    ]},
    {"smiles": "CCNC(=O)c1noc(-c2cc(C(C)C)c(O)cc2O)c1-c1ccc(CN2CCOCC2)cc1", "note": "[NVP-AUY922]", "values": [
      {"measurement": "EC50, CellTox Green", "setting": "HCC1937", "value": 0.987, "unit": "µM"}
    ]}
  ]
}
